Tests used:
[1] = molecular target: Histone-lysine N-methyltransferase EZH2 (Homo sapiens, UniProt Q15910); test: Inhibition of EZH2 (unknown origin) by radiometric assay
[2] = molecular target: Bromodomain-containing protein 4 (Homo sapiens, UniProt O60885); test: Inhibition of BRD4 (unknown origin) by HTRF analysis

Histone-lysine N-methyltransferase EZH2, sequence (Q15910 whole entry): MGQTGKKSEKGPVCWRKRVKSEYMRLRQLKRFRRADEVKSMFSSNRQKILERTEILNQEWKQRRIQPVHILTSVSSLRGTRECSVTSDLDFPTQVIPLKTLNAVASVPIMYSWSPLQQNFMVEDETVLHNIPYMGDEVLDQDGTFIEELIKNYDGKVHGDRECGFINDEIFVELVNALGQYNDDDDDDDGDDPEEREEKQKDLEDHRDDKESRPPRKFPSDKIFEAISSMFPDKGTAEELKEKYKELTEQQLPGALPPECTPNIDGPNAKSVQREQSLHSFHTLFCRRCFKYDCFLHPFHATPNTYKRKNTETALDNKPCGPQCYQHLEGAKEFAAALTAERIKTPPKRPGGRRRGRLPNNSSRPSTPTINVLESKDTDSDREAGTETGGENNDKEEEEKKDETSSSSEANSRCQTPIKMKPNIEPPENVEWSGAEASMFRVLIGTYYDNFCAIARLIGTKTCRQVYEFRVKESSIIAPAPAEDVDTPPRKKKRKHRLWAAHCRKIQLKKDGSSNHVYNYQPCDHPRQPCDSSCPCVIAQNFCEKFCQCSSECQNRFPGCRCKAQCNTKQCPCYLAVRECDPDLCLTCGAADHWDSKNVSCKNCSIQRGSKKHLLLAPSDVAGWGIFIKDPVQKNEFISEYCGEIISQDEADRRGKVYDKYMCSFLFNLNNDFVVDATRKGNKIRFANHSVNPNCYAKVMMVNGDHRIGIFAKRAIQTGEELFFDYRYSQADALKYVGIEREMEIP

| SMILES | IC50 [1] | IC50 [2] |
| --- | --- | --- |
| Cc1cc(C)c(CNC(=O)c2cc(-c3cn(C)c(=O)c4[nH]ccc34)cc3c2ccn3C2CCCC2)c(=O)[nH]1 | 5 nM | 278 nM |
| Cc1[nH]c(=O)c(CNC(=O)c2cc(-c3cn(C)c(=O)c4[nH]ccc34)cc3[nH]cc(C)c23)c2c1CCCC2 | > 100 nM | > 300 nM |
| Cc1[nH]c(=O)c(CNC(=O)c2cc(-c3cn(C)c(=O)c4[nH]ccc34)cc3c2ccn3C(C)C)c2c1CCCC2 | 12.3 nM | > 300 nM |
| Cc1cc(C)c(CNC(=O)c2cc(-c3cn(C)c(=O)c4[nH]ccc34)cc3c2ccn3CC2CCCCC2)c(=O)[nH]1 | 63 nM | 187 nM |
| Cc1cc(C)c(CNC(=O)c2cc(-c3cn(C)c(=O)c4[nH]ccc34)cc3c2cnn3C2CCCC2)c(=O)[nH]1 | 37 nM | > 300 nM |

Continued by falling IC50 [1], values first:

| IC50 [1] | IC50 [2] | SMILES |
| --- | --- | --- |
| 83 nM | > 300 nM | Cc1cc(C)c(CNC(=O)c2cc(-c3cn(C)c(=O)c4[nH]ccc34)cc3[nH]ccc23)c(=O)[nH]1 |
| 46 nM | > 300 nM | Cc1[nH]c(=O)c(CNC(=O)c2cc(-c3cn(C)c(=O)c4[nH]ccc34)cc3c2cnn3C2CCCC2)c2c1CCCC2 |
| 12 nM | > 300 nM | Cc1cc(C)c(CNC(=O)c2cc(-c3cn(C)c(=O)c4[nH]ccc34)cc3c2c(C)cn3CC2CCCCC2)c(=O)[nH]1 |
| 9.3 nM | > 300 nM | CCCC(C)n1ccc2c(C(=O)NCc3c4c(c(C)[nH]c3=O)CCCC4)cc(-c3cn(C)c(=O)c4[nH]ccc34)cc21 (configuration not stated) |
| 8.3 nM | > 300 nM | Cc1[nH]c(=O)c(CNC(=O)c2cc(-c3cn(C)c(=O)c4[nH]ccc34)cc3c2ccn3C2CCCC2)c2c1CCCC2 |
| 5.2 nM | > 300 nM | CCC(C)n1ccc2c(C(=O)NCc3c4c(c(C)[nH]c3=O)CCCC4)cc(-c3cn(C)c(=O)c4[nH]ccc34)cc21 (configuration not stated) |

From ChEMBL document CHEMBL5316343, “Design, Synthesis, and Biological Evaluation of a Potent Dual EZH2-BRD4 Inhibitor for the Treatment of Some Solid Tumors” (J Med Chem, 2023)
